Laboratory results reported in publication PMC6993528, “Dehydroepiandrosterone and Its CYP7B1 Metabolite 7α-Hydroxydehydroepiandrosterone Regulates 11β-Hydroxysteroid Dehydrogenase 1 Directions in Rat Leydig Cells” (Frontiers in Endocrinology, 2020).
Entries after “also recorded” stand apart in the source; their conditions may differ.

What was measured:
11β-HSD1 [1] = target: T1, 11β-HSD1 (Rattus norvegicus, UniProt P16232); test: 11β-HSD1 oxidase assay in intact ALCs (CORT to DHC); format: cell-based; settings: for lowest observable effective level (LOEL) on 11β-HSD1 oxidase activity: 10 nM-10 μM tested
T1 construct: endogenous in cells; host or cells: primary rat adult Leydig cells (ALCs) from 90-day-old rat testes
T1 sequence (P16232 whole entry): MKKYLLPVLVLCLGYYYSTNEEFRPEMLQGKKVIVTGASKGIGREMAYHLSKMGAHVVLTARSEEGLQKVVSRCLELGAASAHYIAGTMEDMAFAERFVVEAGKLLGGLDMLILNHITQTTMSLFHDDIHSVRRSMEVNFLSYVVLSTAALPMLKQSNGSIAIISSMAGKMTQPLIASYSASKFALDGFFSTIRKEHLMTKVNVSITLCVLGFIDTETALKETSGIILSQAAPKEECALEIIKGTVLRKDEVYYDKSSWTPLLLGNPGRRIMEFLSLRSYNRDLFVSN
Excerpt: (§1) Testes were processed for purification of Leydig cells. The progenitor (PLC), immature (ILC), and adult Leydig cells (ALC) were purified from rat testes at 21, 35, and 90 days postpartum, as described previously ([25], [26]). In brief, forty 21-day-old (for PLCs), eighteen 35-day-old (for ILCs), and six 90-day-old (for ALCs) rats were sacrificed, followed by removal and decapsulation of testes. Then, the testes were digested with collagenase and cells were separated by Percoll density gradient centrifugation. Purities of Leydig cell fractions were evaluated by histochemical staining of 3β-hydroxysteroid dehydrogenase (3β-HSD), with 0.4 mM etiocholanolone as an enzyme substrate ([27]). At least six isolations per cell types were performed.
(§2) 11β-HSD1 oxidase and reductase in intact ALCs were performed as previously described ([15]).11β-HSD1 oxidase activity assay tubes contained 25 nM CORT spiked with 60,000 dpm [^3H]-CORT (a concentration within the range of physiological levels of CORT). 11β-HSD1 reductase activity assay tubes contained 25 nM DHC spiked with 60,000 dpm [^3H]-DHC. 2.5 × 10^4 intact ALCs were added to start the reaction and the reaction was maintained in 34°C and 75 rpm shaking water bath for 30 min. The reactions were stopped by adding 2 ml ice-cold ether. The steroids were extracted, and the organic layer was dried under nitrogen. The steroids were separated chromatographically on thin layer plates in chloroform and methanol (90:10, v/v), and the radioactivity was measured using a scanning radiometer (System AR2000, Bioscan Inc., Washington, DC). The percentage conversion of CORT to DHC and DHC to CORT was calculated by dividing the radioactive counts identified as DHC (or CORT, respectively) by the total counts associated with CORT plus DHC.

11β-HSD1 [2] = target: T1, 11β-HSD1; test: 11β-HSD1 reductase assay in intact ALCs (DHC to CORT); format: cell-based; settings: for lowest observable effective level (LOEL) on 11β-HSD1 reductase activity: 10 nM-10 μM tested
Excerpt: as §1, §2

11β-HSD1 [3] = target: T1, 11β-HSD1; test: 11β-HSD1 oxidase assay in ALC microsomes; format: biochemical
Procedure: (§3) The microsomes from ALCs were prepared as described previously ([6]). In brief, ALCs were homogenized in cold 0.01M PBS, pH 7.2, containing 0.25 M sucrose. Subsequently, the homogenates were centrifuged at 700 × g for 30 min and the supernatants were transferred to other tubes followed by centrifugation at 10,000 × g for 30 min. The resultant supernatants were centrifuged twice at 105,000 × g for 1 h. The pellets were resuspended and the protein contents were determined by Bio-Rad Protein Assay Kit (cat# 500–0006, Bio-Rad, Hercules, CA). Microsomes were used to assay 11β-HSD1 oxidoreductase activities.
(§4) 11β-HSD1 oxidase and reductase in microsomes were performed as previously described ([15]). For measurements in microsomal preparations, microsomes were incubated with 25 nM [^3H]-CORT and 0.2 mM NADP^+ for oxidase or 25 nM [^3H]-DHC and 0.2 mM NADPH for reductase activity in presence of different concentrations of DHEA or 7αOHD. For testing mode of action, microsomes were incubated with 2 nM to 10 μM [^3H]-CORT and 0.2 mM NADP^+ for oxidase or 2 nM to 10 μM [^3H]-DHC and 0.2 mM NADPH for reductase activity. 1.5 μg of ALC microsomes were added to initiate the reaction. The reactions were stopped by adding 2 ml ice-cold ether. The steroids were extracted, and the organic layer was dried under nitrogen. The steroids were separated chromatographically on thin layer plates in chloroform and methanol (90:10, v/v), and the radioactivity was measured using a scanning radiometer (System AR2000, Bioscan Inc., Washington, DC). The percentage conversion of CORT to DHC and DHC to CORT was calculated by dividing the radioactive counts identified as DHC (or CORT, respectively) by the total counts associated with CORT plus DHC.

11β-HSD1 [4] = target: T1, 11β-HSD1; test: 11β-HSD1 reductase assay in ALC microsomes; format: biochemical; settings: for LOEL on 11β-HSD1 reductase activity in ALC microsomes: 10 nM-10 μM tested
Procedure: as §3, §4

[5] = ALC microsomes, 0, 1 and 10 μM, Lineweaver-Burk plot

For `C[C@]12CC[C@H](O)CC1=C[C@@H](O)[C@@H]1[C@@H]2CC[C@]2(C)C(=O)CC[C@@H]12` [7αOHD, 7α-hydroxydehydroepiandrosterone], the “lowest observable effective level (LOEL) on 11β-HSD1 oxidase activity” value (11β-HSD1 [1]; intact ALCs) was 100 nM, the IC50 (11β-HSD1 [1]; intact ALCs, 25 nM CORT, 0.5 h, Mean ± SEM (n = 4), read-out: IC50 for inhibition of 11β-HSD1 oxidase, intact Leydig cells) was 1.18 ± 0.12 µM and the 11β-HSD1 oxidase activity (11β-HSD1 [1]; intact ALCs, at 1 μM) was 60 % of control. The 11β-HSD1 oxidase/reductase ratio (11β-HSD1 [1]; intact ALCs, at 1 μM) was 50 % of control, the 11β-HSD1 oxidase activity (11β-HSD1 [1]; intact ALCs, at 10 μM) was 25 % of control and the 11β-HSD1 oxidase/reductase ratio (11β-HSD1 [1]; intact ALCs, at 10 μM) was 20 % of control. The “lowest observable effective level (LOEL) on 11β-HSD1 reductase activity” value (11β-HSD1 [2]; intact ALCs) was 100 nM, the EC50 (11β-HSD1 [2]; intact ALCs, 25 nM DHC, 0.5 h, Mean ± SEM (n = 4), read-out: EC50 for stimulation of 11β-HSD1 reductase, intact Leydig cells) was 0.7 ± 0.04 µM and the 11β-HSD1 reductase activity (11β-HSD1 [2]; intact ALCs, at 1 μM) was 200 % of control. For the same molecule, the 11β-HSD1 reductase activity (11β-HSD1 [2]; intact ALCs, at 10 μM) was 200 % of control, the “mode of action on 11β-HSD1 oxidase” value (11β-HSD1 [3]; [5]) was “competitive inhibitor” and the “LOEL on 11β-HSD1 oxidase activity in ALC microsomes” value (11β-HSD1 [3]; ALC microsomes, 10 nM-10 μM tested) was 100 nM. For the same molecule, the “EC50/IC50 for 11β-HSD1 oxidase, microsome” value (11β-HSD1 [3]; ALC microsomes, 25 nM CORT plus 0.2 mM NADP+, ND, not detected, Mean ± SEM (n = 4)) was 0.93 ±0.14 ×10^−6 M, the IC50 (11β-HSD1 [3]; ALC microsomes, 25 nM CORT plus 0.2 mM NADP+, read-out: IC50 for inhibiting 11β-HSD1 oxidase activity in ALC microsomes) was 0.93 µM and the “11β-HSD1 oxidase activity in ALC microsomes” value (11β-HSD1 [3]; at 1 μM) was 60 % of control. For the same molecule, the “11β-HSD1 oxidase activity in ALC microsomes” value (11β-HSD1 [3]; at 10 μM) was 25 % of control, the “11β-HSD1 oxidase/reductase ratio in ALC microsomes” value (11β-HSD1 [3]; at 0.1–10 μM) was “significantly decreased” and the “LOEL on 11β-HSD1 reductase activity in ALC microsomes” value (11β-HSD1 [4]; ALC microsomes) was 100 nM. The EC50 (11β-HSD1 [4]; ALC microsomes, 25 nM DHC plus 0.2 mM NADPH, Mean ± SEM (n = 4), read-out: EC50 for stimulation of 11β-HSD1 reductase, microsome) was 0.2 ± 0.01 µM and the “effect on 11β-HSD1 reductase activity in ALC microsomes at the highest concentration” value (11β-HSD1 [4]; at the highest concentration (100 nM)) was “did not affect”.
For `C[C@]12CC[C@H](O)CC1=CC[C@@H]1[C@@H]2CC[C@]2(C)C(=O)CC[C@@H]12` [DHEA, dehydroepiandrosterone], the EC50 (11β-HSD1 [1]) was 0.97 ± 0.1 µM, the “lowest observable effective level (LOEL) on 11β-HSD1 oxidase activity” value (11β-HSD1 [1]; intact ALCs) was 100 nM and the 11β-HSD1 oxidase activity (11β-HSD1 [1]; intact ALCs, at 10 μM) was 300 % of control. For the same molecule, the “increase of 11β-HSD1 oxidase/reductase ratio” value (11β-HSD1 [1]; intact ALCs, at 10 μM) was 26 folds, the IC50 (11β-HSD1 [2]) was 1.04 ± 0.06 µM and the “lowest observable effective level (LOEL) on 11β-HSD1 reductase activity” value (11β-HSD1 [2]; intact ALCs) was 100 nM. For the same molecule, the 11β-HSD1 reductase activity (11β-HSD1 [2]; intact ALCs, at 10 μM) was 12 % of control, the “effect on microsomal 11β-HSD1 oxidase activity” value (11β-HSD1 [3]; ALC microsomes, 10 nM-10 μM) was “did not affect; also recorded: nearly unchanged” and the “effect on microsomal 11β-HSD1 oxidase activity at 10 μM” value (11β-HSD1 [3]; ALC microsomes, at 10 μM) was “inhibited”. For the same molecule, the “11β-HSD1 oxidase/reductase ratio in ALC microsomes” value (11β-HSD1 [3]; at 1 and 10 μM) was “significantly higher than control”, the “mode of action on 11β-HSD1 reductase” value (11β-HSD1 [4]; [5]) was “potent competitive inhibitor” and the “LOEL on 11β-HSD1 reductase activity in ALC microsomes” value (11β-HSD1 [4]; ALC microsomes) was 100 nM. For the same molecule, the “11β-HSD1 reductase activity in ALC microsomes” value (11β-HSD1 [4]; at 10 μM) was 25 % of control.
